According to US20250101023A1, “HETEROARYL DERIVATIVE AND USES THEREOF” (IUCF-HYU (INDUSTRY-UNIVERSITY COOPERATION FOUNDATION …, priority 2022, published 2025):

How the values were obtained:
WEE1 = WEE1 (Homo sapiens (Human), UniProt P30291); assay: Kinome-wide profiling; format: biochemical; settings: read-out: % Residual Activity (mean)
FGR = FGR (Homo sapiens (Human), UniProt P09769); assay: Kinome-wide profiling; format: biochemical; settings: read-out: % Residual Activity (mean)
P38b/MAPK11 = P38b/MAPK11 (Homo sapiens (Human), UniProt Q15759); assay: Kinome-wide profiling; format: biochemical; settings: read-out: % Residual Activity (mean)
BRK = BRK (Homo sapiens (Human), UniProt Q13882); assay: Kinome-wide profiling; format: biochemical; settings: read-out: % Residual Activity (mean)
TBK1 = TBK1 (Homo sapiens (Human), UniProt Q9UHD2); assay: Kinome-wide profiling; format: biochemical; settings: read-out: % Residual Activity (mean)
STK16 = STK16 (Homo sapiens (Human), UniProt O75716); assay: Kinome-wide profiling; format: biochemical; settings: read-out: % Residual Activity (mean)
STK16, sequence (O75716 whole entry): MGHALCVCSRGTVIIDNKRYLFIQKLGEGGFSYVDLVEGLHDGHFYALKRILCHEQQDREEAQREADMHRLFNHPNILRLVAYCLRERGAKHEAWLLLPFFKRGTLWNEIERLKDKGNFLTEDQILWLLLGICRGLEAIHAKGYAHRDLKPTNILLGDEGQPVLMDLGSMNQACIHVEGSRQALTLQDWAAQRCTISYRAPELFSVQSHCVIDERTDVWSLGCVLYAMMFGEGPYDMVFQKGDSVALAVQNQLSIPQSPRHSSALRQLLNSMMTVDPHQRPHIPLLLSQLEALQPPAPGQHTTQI

ULK2 = ULK2 (Homo sapiens (Human), UniProt Q8IYT8); assay: Kinome-wide profiling; format: biochemical; settings: read-out: % Residual Activity (mean)
SRMS = SRMS (Homo sapiens (Human), UniProt Q9H3Y6); assay: Kinome-wide profiling; format: biochemical; settings: read-out: % Residual Activity (mean)
SRMS, sequence (Q9H3Y6 whole entry): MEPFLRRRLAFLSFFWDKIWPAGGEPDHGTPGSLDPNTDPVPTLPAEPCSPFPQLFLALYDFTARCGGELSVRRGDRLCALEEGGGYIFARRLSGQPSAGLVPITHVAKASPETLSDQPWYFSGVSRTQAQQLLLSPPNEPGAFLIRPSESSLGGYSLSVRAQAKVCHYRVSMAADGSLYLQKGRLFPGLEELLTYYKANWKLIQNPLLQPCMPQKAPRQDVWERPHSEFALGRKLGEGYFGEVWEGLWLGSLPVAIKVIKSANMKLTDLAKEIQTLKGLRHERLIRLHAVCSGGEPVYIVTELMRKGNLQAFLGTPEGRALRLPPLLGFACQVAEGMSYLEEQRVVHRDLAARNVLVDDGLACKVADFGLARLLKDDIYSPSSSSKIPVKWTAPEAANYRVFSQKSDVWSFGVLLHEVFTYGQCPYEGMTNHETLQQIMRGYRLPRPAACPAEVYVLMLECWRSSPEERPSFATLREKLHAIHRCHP

GRK5 = GRK5 (Homo sapiens (Human), UniProt P34947); assay: Kinome-wide profiling; format: biochemical; settings: read-out: % Residual Activity (mean)
PKN2/PRK2 = PKN2/PRK2 (Homo sapiens (Human), UniProt Q16513); assay: Kinome-wide profiling; format: biochemical; settings: read-out: % Residual Activity (mean)
PKN2/PRK2, sequence (Q16513 whole entry): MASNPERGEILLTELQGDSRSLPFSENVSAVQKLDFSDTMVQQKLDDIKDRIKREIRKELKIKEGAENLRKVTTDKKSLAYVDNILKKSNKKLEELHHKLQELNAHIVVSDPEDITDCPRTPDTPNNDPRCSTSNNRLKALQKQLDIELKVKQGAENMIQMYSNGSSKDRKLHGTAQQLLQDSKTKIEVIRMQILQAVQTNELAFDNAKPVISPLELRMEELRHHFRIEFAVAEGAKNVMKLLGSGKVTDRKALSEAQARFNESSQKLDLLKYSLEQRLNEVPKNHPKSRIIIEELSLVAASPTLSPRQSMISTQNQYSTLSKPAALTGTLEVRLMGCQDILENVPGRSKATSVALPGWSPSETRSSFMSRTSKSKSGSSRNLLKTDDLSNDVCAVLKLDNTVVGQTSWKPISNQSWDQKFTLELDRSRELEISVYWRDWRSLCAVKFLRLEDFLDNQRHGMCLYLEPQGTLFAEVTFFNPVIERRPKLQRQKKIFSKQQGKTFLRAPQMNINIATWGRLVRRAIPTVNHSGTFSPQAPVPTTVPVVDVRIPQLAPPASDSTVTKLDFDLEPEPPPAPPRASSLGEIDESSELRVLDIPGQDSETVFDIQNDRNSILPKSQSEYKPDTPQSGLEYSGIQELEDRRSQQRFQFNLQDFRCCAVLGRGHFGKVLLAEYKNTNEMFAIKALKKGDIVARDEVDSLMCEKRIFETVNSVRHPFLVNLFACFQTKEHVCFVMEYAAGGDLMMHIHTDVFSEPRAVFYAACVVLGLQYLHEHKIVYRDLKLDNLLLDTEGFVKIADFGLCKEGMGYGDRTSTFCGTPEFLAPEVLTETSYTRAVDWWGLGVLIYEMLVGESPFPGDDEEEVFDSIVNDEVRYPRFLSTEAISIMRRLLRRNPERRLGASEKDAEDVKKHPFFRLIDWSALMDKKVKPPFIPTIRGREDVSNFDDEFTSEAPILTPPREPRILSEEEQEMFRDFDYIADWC

CLK4 = CLK4 (Homo sapiens (Human), UniProt Q9HAZ1); assay: Kinome-wide profiling; format: biochemical; settings: read-out: % Residual Activity (mean)
CLK4, sequence (Q9HAZ1 whole entry): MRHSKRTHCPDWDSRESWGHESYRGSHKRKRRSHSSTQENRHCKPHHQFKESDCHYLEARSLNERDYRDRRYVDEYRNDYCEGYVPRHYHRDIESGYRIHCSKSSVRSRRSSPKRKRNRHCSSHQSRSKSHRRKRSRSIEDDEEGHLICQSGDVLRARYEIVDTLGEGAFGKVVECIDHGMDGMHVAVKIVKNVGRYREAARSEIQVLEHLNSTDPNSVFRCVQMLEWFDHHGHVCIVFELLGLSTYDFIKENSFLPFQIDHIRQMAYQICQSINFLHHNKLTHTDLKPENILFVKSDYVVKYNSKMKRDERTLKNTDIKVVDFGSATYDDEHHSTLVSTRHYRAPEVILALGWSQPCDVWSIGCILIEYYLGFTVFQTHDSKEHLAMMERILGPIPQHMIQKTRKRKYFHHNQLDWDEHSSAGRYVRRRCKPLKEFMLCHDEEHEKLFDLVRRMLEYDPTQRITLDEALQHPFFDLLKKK

HPK1/MAP4K1 = HPK1/MAP4K1 (Homo sapiens (Human), UniProt Q92918); assay: Kinome-wide profiling; format: biochemical; settings: read-out: % Residual Activity (mean)
STK32C/YANK3 = STK32C/YANK3 (Homo sapiens (Human), UniProt Q86UX6); assay: Kinome-wide profiling; format: biochemical; settings: read-out: % Residual Activity (mean)
WNK3 = WNK3 (Homo sapiens (Human), UniProt Q9BYP7); assay: Kinome-wide profiling; format: biochemical; settings: read-out: % Residual Activity (mean)
CDK6/cyclin D3 = CDK6/cyclin D3 (Homo sapiens (Human), UniProt Q00534); assay: Kinome-wide profiling; format: biochemical; settings: read-out: % Residual Activity (mean)
CK2a = CK2a (Homo sapiens (Human), UniProt P68400); assay: Kinome-wide profiling; format: biochemical; settings: read-out: % Residual Activity (mean)
CAMK1b = CAMK1b (Homo sapiens (Human), UniProt Q6P2M8); assay: Kinome-wide profiling; format: biochemical; settings: read-out: % Residual Activity (mean)
CAMK1b, sequence (Q6P2M8 whole entry): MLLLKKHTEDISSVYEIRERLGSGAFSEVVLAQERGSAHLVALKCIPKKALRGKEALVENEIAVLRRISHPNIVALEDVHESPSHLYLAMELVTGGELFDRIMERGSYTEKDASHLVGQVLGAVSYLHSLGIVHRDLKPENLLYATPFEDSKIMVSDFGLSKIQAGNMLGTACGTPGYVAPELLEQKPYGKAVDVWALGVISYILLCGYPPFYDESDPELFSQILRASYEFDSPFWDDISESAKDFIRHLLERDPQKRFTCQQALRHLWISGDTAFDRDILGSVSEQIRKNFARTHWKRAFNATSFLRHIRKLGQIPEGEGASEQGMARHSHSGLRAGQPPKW

ALK = ALK (Homo sapiens (Human), UniProt Q9UM73); assay: Kinome-wide profiling; format: biochemical; settings: read-out: % Residual Activity (mean)
BRSK1 = BRSK1 (Homo sapiens (Human), UniProt Q8TDC3); assay: Kinome-wide profiling; format: biochemical; settings: read-out: % Residual Activity (mean)
GRK6 = GRK6 (Homo sapiens (Human), UniProt P43250); assay: Kinome-wide profiling; format: biochemical; settings: read-out: % Residual Activity (mean)
ABL2/ARG = ABL2/ARG (Homo sapiens (Human), UniProt P42684); assay: Kinome-wide profiling; format: biochemical; settings: read-out: % Residual Activity (mean)
PIM2 = PIM2 (Homo sapiens (Human), UniProt Q9P1W9); assay: Kinome-wide profiling; format: biochemical; settings: read-out: % Residual Activity (mean)
CDK5/P25 = CDK5/P25 (Homo sapiens (Human), UniProt Q00535); assay: Kinome-wide profiling; format: biochemical; settings: read-out: % Residual Activity (mean)
CDK5/P25, sequence (Q00535 whole entry): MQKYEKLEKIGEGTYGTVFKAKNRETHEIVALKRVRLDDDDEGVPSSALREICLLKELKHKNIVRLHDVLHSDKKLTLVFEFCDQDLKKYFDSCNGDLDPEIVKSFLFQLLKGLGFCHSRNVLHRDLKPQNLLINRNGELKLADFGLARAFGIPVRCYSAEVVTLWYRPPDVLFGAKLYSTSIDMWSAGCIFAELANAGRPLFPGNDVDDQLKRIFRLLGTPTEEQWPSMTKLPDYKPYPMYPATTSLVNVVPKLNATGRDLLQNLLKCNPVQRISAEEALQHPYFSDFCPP
CDK5/P25, sequence (Q15078 99-307 partner): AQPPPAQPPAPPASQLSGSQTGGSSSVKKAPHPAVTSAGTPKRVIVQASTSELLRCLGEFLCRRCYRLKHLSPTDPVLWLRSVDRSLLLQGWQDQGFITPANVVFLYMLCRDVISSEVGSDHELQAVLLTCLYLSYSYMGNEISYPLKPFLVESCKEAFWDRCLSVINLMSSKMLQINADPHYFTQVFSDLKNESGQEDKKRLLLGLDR

NEK11 = NEK11 (Homo sapiens (Human), UniProt Q8NG66); assay: Kinome-wide profiling; format: biochemical; settings: read-out: % Residual Activity (mean)
EPHA4 = EPHA4 (Homo sapiens (Human), UniProt P54764); assay: Kinome-wide profiling; format: biochemical; settings: read-out: % Residual Activity (mean)
MUSK = MUSK (Homo sapiens (Human), UniProt O15146); assay: Kinome-wide profiling; format: biochemical; settings: read-out: % Residual Activity (mean)
YSK4/MAP3K19 = YSK4/MAP3K19 (Homo sapiens (Human), UniProt Q56UN5); assay: Kinome-wide profiling; format: biochemical; settings: read-out: % Residual Activity (mean)
MYLK4 = MYLK4 (Homo sapiens (Human), UniProt Q86YV6); assay: Kinome-wide profiling; format: biochemical; settings: read-out: % Residual Activity (mean)
SYK = SYK (Homo sapiens (Human), UniProt P43405); assay: Kinome-wide profiling; format: biochemical; settings: read-out: % Residual Activity (mean)
GSK3a = GSK3a (Homo sapiens (Human), UniProt P49840); assay: Kinome-wide profiling; format: biochemical; settings: read-out: % Residual Activity (mean)
CLK3 = CLK3 (Homo sapiens (Human), UniProt P49761); assay: Kinome-wide profiling; format: biochemical; settings: read-out: % Residual Activity (mean)
PKCb2 = PKCb2 (Homo sapiens (Human), UniProt P05771); assay: Kinome-wide profiling; format: biochemical; settings: read-out: % Residual Activity (mean)
CDK4/cyclin D2 = CDK4/cyclin D2 (Homo sapiens (Human), UniProt P11802); assay: Kinome-wide profiling; format: biochemical; settings: read-out: % Residual Activity (mean)
LKB1 = LKB1 (Homo sapiens (Human), UniProt Q15831); assay: Kinome-wide profiling; format: biochemical; settings: read-out: % Residual Activity (mean)
LKB1, sequence (Q15831 whole entry): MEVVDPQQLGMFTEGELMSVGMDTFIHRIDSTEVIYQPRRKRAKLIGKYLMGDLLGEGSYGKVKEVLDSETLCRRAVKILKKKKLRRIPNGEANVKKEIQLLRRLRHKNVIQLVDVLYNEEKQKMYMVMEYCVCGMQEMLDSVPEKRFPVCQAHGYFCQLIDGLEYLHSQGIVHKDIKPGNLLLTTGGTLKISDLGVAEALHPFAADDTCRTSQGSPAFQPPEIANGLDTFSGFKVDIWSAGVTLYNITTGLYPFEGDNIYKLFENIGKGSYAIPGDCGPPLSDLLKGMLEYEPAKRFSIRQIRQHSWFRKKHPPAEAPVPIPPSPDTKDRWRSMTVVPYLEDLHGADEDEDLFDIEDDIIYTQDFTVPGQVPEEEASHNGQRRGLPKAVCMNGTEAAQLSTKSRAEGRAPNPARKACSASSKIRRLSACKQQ
LKB1, sequence (Q7RTN6 whole entry partner): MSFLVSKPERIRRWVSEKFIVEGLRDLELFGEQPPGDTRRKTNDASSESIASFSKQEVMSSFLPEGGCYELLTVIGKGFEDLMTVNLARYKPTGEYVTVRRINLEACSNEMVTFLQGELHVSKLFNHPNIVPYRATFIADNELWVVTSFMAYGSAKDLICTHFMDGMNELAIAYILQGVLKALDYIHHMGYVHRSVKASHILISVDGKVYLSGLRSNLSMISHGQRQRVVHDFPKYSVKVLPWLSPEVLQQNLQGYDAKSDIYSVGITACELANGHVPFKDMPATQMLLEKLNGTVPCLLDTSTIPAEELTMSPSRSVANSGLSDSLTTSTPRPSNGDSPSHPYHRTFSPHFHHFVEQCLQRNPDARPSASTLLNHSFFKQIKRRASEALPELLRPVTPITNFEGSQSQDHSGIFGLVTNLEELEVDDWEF
LKB1, sequence (Q9Y376 whole entry partner): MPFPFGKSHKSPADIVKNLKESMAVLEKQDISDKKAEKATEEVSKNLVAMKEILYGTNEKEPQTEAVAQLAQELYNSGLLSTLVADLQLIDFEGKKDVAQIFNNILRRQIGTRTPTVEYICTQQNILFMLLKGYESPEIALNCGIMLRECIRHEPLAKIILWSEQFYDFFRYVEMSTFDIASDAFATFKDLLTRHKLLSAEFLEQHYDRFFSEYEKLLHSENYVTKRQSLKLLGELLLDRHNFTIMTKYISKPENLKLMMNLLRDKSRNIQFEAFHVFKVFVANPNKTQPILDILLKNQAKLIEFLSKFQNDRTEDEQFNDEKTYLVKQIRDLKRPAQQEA

CDK6/cyclin D1 = CDK6/cyclin D1 (Homo sapiens (Human), UniProt Q00534); assay: Kinome-wide profiling; format: biochemical; settings: read-out: % Residual Activity (mean)
PDGFRa = PDGFRa (Homo sapiens (Human), UniProt P16234); assay: Kinome-wide profiling; format: biochemical; settings: read-out: % Residual Activity (mean)
TSSK3/STK22C = TSSK3/STK22C (Homo sapiens (Human), UniProt Q96PN8); assay: Kinome-wide profiling; format: biochemical; settings: read-out: % Residual Activity (mean)
IRS1 and WNT1 = assay: Western blot, CDK12 downstream gene expression; format: cell-based; settings: SK-Br3 and HCC1954 cell lines, 40 and 200 nM, 24 hours
SLK/STK2 = SLK/STK2 (Homo sapiens (Human), UniProt Q9H2G2); assay: Kinome-wide profiling; format: biochemical; settings: read-out: % Residual Activity (mean)

WEE1, sequence (P30291 whole entry): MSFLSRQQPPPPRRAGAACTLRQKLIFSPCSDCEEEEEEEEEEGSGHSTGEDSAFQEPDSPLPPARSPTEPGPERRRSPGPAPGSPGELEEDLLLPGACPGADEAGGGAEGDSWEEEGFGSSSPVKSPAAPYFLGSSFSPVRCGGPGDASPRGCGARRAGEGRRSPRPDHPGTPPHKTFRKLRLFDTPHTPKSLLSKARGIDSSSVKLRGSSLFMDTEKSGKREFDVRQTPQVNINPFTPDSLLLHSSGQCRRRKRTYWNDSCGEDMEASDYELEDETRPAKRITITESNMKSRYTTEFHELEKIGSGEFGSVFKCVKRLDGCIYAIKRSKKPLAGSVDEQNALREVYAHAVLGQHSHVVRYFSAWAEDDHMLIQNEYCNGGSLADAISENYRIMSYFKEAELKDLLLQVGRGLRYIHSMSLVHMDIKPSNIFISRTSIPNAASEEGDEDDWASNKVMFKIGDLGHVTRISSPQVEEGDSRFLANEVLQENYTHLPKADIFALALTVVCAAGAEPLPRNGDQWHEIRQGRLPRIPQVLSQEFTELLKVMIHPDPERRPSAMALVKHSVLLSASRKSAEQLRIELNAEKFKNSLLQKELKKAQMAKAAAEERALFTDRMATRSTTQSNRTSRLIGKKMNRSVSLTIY

`CCn1cnc2c(NCc3ccc(-c4ccccn4)nc3)nc(-c3ccc(N)nc3)nc21` [Example 53, N-([2,2′-bipyridin]-5-ylmethyl)-2-(6-aminopyridin-3-yl)-9-ethyl-9H-purin-6-amine] gave a remaining activity at 10 µM (WEE1) of 90.2%, a remaining activity at 10 µM (FGR) of 54.6% and a remaining activity at 10 µM (P38b/MAPK11) of 64.7%. The remaining activity at 10 µM (BRK) was 46.6%, the remaining activity at 10 µM (TBK1) was 55% and the remaining activity at 10 µM (STK16) was 35.9%. The remaining activity at 10 µM (ULK2) was 87.3%, the remaining activity at 10 µM (SRMS) was 96.8% and the remaining activity at 10 µM (GRK5) was 91.5%. It also gave a remaining activity at 10 µM (PKN2/PRK2) of 85.8%, a remaining activity at 10 µM (CLK4) of 28.7% and a remaining activity at 10 µM (HPK1/MAP4K1) of 30.2%. It also gave a remaining activity at 10 µM (STK32C/YANK3) of 86.7%, a remaining activity at 10 µM (WNK3) of 74.5% and a remaining activity at 10 µM (CDK6/cyclin D3) of 12.9%. For the same compound, the remaining activity at 10 µM (CK2a) was 84.2%, the remaining activity at 10 µM (CAMK1b) was 66.8% and the remaining activity at 10 µM (ALK) was 59.7%. It also gave a remaining activity at 10 µM (BRSK1) of 92.8%, a remaining activity at 10 µM (GRK6) of 80.6% and a remaining activity at 10 µM (ABL2/ARG) of 56.1%. The remaining activity at 10 µM (PIM2) was 93.8%, the remaining activity at 10 µM (CDK5/P25) was 1.6% and the remaining activity at 10 µM (NEK11) was 94.2%. The remaining activity at 10 µM (EPHA4) was 3.61%, the remaining activity at 10 µM (MUSK) was 10.2% and the remaining activity at 10 µM (YSK4/MAP3K19) was 96.8%. For the same compound, the remaining activity at 10 µM (MYLK4) was 4.07%, the remaining activity at 10 µM (SYK) was 48.4% and the remaining activity at 10 µM (GSK3a) was 10.6%. For the same compound, the remaining activity at 10 µM (CLK3) was 94.6%, the remaining activity at 10 µM (PKCb2) was 39.6% and the remaining activity at 10 µM (CDK4/cyclin D2) was 21.8%. The remaining activity at 10 µM (LKB1) was 0%, the remaining activity at 10 µM (CDK6/cyclin D1) was 24.2% and the remaining activity at 10 µM (PDGFRa) was 52.8%. For the same compound, the remaining activity at 10 µM (TSSK3/STK22C) was 91.5%, the “expression of IRS1 and WNT1” value (IRS1 and WNT1) was “inhibited the expression of IRS1 and WNT1” and the “expression of IRS1 and WNT1” value (IRS1 and WNT1; listed as Compound 53) was “strongly suppressed”. For the same compound, the remaining activity at 10 µM (SLK/STK2) was 69.5%.
